These results are taken from patent US11591322B2, “Certain chemical compositions and methods of use thereof” (Algen Biotechnologies, Inc., priority 2020, dated 2023).

Bounds are passed on as bounds.

The test system of one experiment is HepG2 cells. As to the kind of experiment: Cancer cell viability assay (CellTiter-Glo 2.0), HepG2. The experiment is classed as cell-based, Human. Conditions: HepG2, 72 hours compound treatment. As to the method: (§1) Human liver cancer cell lines HepG2, Hep3B, Huh7, and SK-HEP-1 cells were rinsed and trypsinized with 0.25% trypsin (Corning #25-053-CI) in an incubator at 37° C. until detached. The cells were resuspended and seeded in 96-well plates to a density of 5,000 cells per well. Following cell adhesion, compounds were added to a final concentration of 2× dilution. 72 hours following compound treatment, CellTiter-Glo® 2.0 was added to the well in a 2:1 ratio of media/CellTiter-Glo® 2.0. The plates were shielded from light, shaken for 2 minutes, and incubated for 10 minutes. Luminescence was measured on a microplate reader and EC50 values were calculated using Prism 9 software.
Background: In ATP-based viability assays light output follows the ATP content of the culture.

A further experiment has as its target CDK9/CyclinT (Homo sapiens (Human), UniProt P50750). The experiment in a line: CDK9 biochemical assay (Kinase-Glo Max luminescence). The settings on record: 30° C. for 45 minutes. As to the method: To each well of a 96-well plate was added 5× kinase assay buffer with 10 mM DTT (6 μL), 500 μM ATP (1 μL), 5×CDK substrate (10 μL), and water (8 μL). 5 μL of compound were added to the test and positive control groups, while 5 μL of solvent was added to the blank groups. 100 ng of CDK9/CyclinT in 20 μL water was added to the test and positive control groups, while 20 μL of 1× kinase assay buffer was added to the blank groups. The reaction mixtures were incubated at 30° C. for 45 minutes, and 50 μL of Kinase-Glo® Max was added to each well and the plates were shielded from light and incubated for 15 minutes at room temperature. Luminescence was measured on a microplate reader and IC50 values were calculated using Prism 9 software.

For another experiment, the system named is SK-HEP-1 cells. The experiment in a line: Cancer cell viability assay (CellTiter-Glo 2.0), SK-HEP-1. The settings on record: SK-HEP-1, 72 hours compound treatment. It counts as cell-based, Human. The protocol:
as §1

The subject of the next experiment is Huh7 cells. The experiment in a line: Cancer cell viability assay (CellTiter-Glo 2.0), Huh7. It counts as cell-based, Human. Conditions: Huh7, 72 hours compound treatment. As to the method:
as §1

The test system of the next experiment is Hep3B cells. The experiment in a line: Cancer cell viability assay (CellTiter-Glo 2.0), Hep3B. It counts as cell-based, Human. Conditions: 72 hours compound treatment. The protocol:
as §1

Sequence of CDK9/CyclinT (P50750 whole entry): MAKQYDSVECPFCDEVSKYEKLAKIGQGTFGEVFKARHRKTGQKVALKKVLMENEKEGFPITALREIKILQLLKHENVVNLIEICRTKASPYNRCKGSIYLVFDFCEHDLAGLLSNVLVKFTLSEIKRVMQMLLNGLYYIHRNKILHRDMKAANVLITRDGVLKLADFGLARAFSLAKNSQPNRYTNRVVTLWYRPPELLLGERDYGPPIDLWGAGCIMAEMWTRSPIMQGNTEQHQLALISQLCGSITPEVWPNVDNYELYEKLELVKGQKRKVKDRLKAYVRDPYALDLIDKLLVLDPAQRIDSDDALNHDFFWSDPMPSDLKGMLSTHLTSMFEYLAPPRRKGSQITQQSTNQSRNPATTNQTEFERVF
Sequence of CDK9/CyclinT (O60563 whole entry partner): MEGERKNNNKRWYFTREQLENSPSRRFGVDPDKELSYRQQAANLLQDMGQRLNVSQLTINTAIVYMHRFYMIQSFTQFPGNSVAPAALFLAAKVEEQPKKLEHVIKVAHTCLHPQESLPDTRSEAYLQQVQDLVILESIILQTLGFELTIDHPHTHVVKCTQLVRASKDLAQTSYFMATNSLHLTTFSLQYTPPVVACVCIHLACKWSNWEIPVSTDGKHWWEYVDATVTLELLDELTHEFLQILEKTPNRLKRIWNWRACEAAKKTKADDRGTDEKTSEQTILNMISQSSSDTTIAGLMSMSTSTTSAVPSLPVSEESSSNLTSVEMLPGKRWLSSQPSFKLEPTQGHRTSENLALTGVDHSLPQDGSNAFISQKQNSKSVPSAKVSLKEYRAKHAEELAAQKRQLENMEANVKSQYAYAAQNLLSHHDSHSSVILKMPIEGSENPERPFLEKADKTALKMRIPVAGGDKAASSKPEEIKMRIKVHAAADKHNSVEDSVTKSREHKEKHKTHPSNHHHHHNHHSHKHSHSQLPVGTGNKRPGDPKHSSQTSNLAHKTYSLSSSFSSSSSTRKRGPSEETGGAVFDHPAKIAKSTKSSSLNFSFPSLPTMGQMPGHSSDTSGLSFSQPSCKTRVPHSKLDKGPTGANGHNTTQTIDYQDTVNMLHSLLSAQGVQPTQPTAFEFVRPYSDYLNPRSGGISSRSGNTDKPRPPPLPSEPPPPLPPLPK

What is called EC50 is the concentration at which the effect is half-maximal. A low value points to an effect from little substance. The IC50 is the concentration at which inhibition is half-maximal. On to `C[C@@H](COCc1nn[nH]n1)NC1CCC(Nc2cc(-c3cccc(NCC4(C#N)CCOCC4)n3)c(Cl)cn2)CC1` (stereo partly drawn) [Compound 3, 4-(((2′-(((1S,4R)-4-(((S)-1-((2H-tetrazol-5-yl)methoxy)propan-2-yl)amino)cyclohexyl)amino)-5′-chloro-[2,4′-bipyridin]-6-yl)amino)methyl)tetrahydro-2H-pyran-4-carbonitrile], for which the EC50 in the experiment with HepG2 cells, with SK-HEP-1 cells and with Huh7 cells was over 1000 nM each time. Besides, the IC50 against CDK9/CyclinT is over 10 nM.

Turning to `CCOC(=O)COC[C@@H](C)NC1CCC(Nc2cc(-c3cccc(NCC4(C#N)CCOCC4)n3)c(Cl)cn2)CC1` (stereo partly shown) [Compound 5], the EC50 in the experiment with HepG2 cells is 500 to 1000 nM; in the experiment on SK-HEP-1 cells, under 100 nM; in the experiment on Huh7 cells, under 100 nM. For the same molecule, the concentration for half-maximal inhibition (IC50) against CDK9/CyclinT is under 2.5 nM.

Turning to `C[C@H](Cc1nnn[nH]1)NC1CCC(Nc2cc(-c3cccc(NCC4(C#N)CCOCC4)n3)c(Cl)cn2)CC1` (stereo partly drawn) [Compound 12, 4-(((2′-(((1R,4R)-4-(((R)-1-(1H-tetrazol-5-yl)propan-2-yl)amino)cyclohexyl)amino)-5′-chloro-[2,4′-bipyridin]-6-yl)amino)methyl)tetrahydro-2H-pyran-4-carbonitrile], the EC50 with HepG2 cells was over 1000 nM. Besides, the IC50 against CDK9/CyclinT is over 10 nM.

For the molecule `C[C@@H](Cc1nnn[nH]1)NC1CCC(Nc2cc(-c3cccc(NCC4(C#N)CCOCC4)n3)c(Cl)cn2)CC1` (stereo partly drawn) [Compound 13, 4-(((2′-(((1S,4R)-4-(((S)-1-(1H-tetrazol-5-yl)propan-2-yl)amino)cyclohexyl)amino)-5′-chloro-[2,4′-bipyridin]-6-yl)amino)methyl)tetrahydro-2H-pyran-4-carbonitrile], the EC50 with HepG2 cells was over 1000 nM. For the same molecule, the IC50 on CDK9/CyclinT is over 10 nM.

With `CCOC(=O)O[C@H](C)n1nnc(COC[C@@H](C)N[C@H]2CC[C@H](Nc3cc(-c4cccc(NCC5(C#N)CCOCC5)n4)c(Cl)cn3)CC2)n1` [Compound 21, (R)-1-(5-(((R)-2-(((1r,4R)-4-((5′-chloro-6-(((4-cyanotetrahydro-2H-pyran-4-yl)methyl)amino)-[2,4′-bipyridin]-2′-yl)amino)cyclohexyl)amino)propoxy)methyl)-2H-tetrazol-2-yl)ethyl ethyl carbonate], the EC50 in the experiment on HepG2 cells was over 1000 nM; in the experiment on Hep3B cells, 500 to 1000 nM. The molecule further returned an IC50 on CDK9/CyclinT of under 2.5 nM.

`CCOC(=O)O[C@H](C)n1nnc(COC[C@H](C)N[C@H]2CC[C@H](Nc3cc(-c4cccc(NCC5(C#N)CCOCC5)n4)c(Cl)cn3)CC2)n1` [Compound 22, (R)-1-(5-(((S)-2-(((1r,4S)-4-((5′-chloro-6-(((4-cyanotetrahydro-2H-pyran-4-yl)methyl)amino)-[2,4′-bipyridin]-2′-yl)amino)cyclohexyl)amino)propoxy)methyl)-2H-tetrazol-2-yl)ethyl ethyl carbonate]: the results for the EC50 in the experiment on HepG2 cells and in the experiment with Hep3B cells were over 1000 nM and 500 to 1000 nM, respectively. This molecule also came in with an IC50 at CDK9/CyclinT of 2.5 to 5 nM.

As for `CCOC(=O)O[C@@H](C)n1nnc(COC[C@@H](C)N[C@H]2CC[C@H](Nc3cc(-c4cccc(NCC5(C#N)CCOCC5)n4)c(Cl)cn3)CC2)n1` [Compound 24, (S)-1-(5-(((R)-2-(((1r,4R)-4-((5′-chloro-6-(((4-cyanotetrahydro-2H-pyran-4-yl)methyl)amino)-[2,4′-bipyridin]-2′-yl)amino)cyclohexyl)amino)propoxy)methyl)-2H-tetrazol-2-yl)ethyl ethyl carbonate], the EC50 in the experiment on HepG2 cells and with Hep3B cells was over 1000 nM each time. This molecule returned an IC50 against CDK9/CyclinT of over 10 nM.

As for `CCOC(=O)O[C@@H](C)n1nnc(COC[C@H](C)N[C@H]2CC[C@H](Nc3cc(-c4cccc(NCC5(C#N)CCOCC5)n4)c(Cl)cn3)CC2)n1` [Compound 25, (S)-1-(5-(((S)-2-(((1r,4S)-4-((5′-chloro-6-(((4-cyanotetrahydro-2H-pyran-4-yl)methyl)amino)-[2,4′-bipyridin]-2′-yl)amino)cyclohexyl)amino)propoxy)methyl)-2H-tetrazol-2-yl)ethyl ethyl carbonate], the EC50 in the experiment with HepG2 cells and in the experiment on Hep3B cells was over 1000 nM in each case. The same molecule yielded an IC50 against CDK9/CyclinT of over 10 nM.

As for `CCOC(=O)O[C@H](C)n1nnnc1COC[C@@H](C)N[C@H]1CC[C@H](Nc2cc(-c3cccc(NCC4(C#N)CCOCC4)n3)c(Cl)cn2)CC1` [Compound 27, (R)-1-(5-(((R)-2-(((1r,4R)-4-((5′-chloro-6-(((4-cyanotetrahydro-2H-pyran-4-yl)methyl)amino)-[2,4′-bipyridin]-2′-yl)amino)cyclohexyl)amino)propoxy)methyl)-1H-tetrazol-1-yl)ethyl ethyl carbonate], the EC50 in the experiment on HepG2 cells and in the experiment on Hep3B cells was over 1000 nM in each case. The IC50 at CDK9/CyclinT is under 2.5 nM.

On to `CCOC(=O)O[C@H](C)n1nnnc1COC[C@H](C)N[C@H]1CC[C@H](Nc2cc(-c3cccc(NCC4(C#N)CCOCC4)n3)c(Cl)cn2)CC1` [Compound 28, (R)-1-(5-(((S)-2-(((1r,4S)-4-((5′-chloro-6-(((4-cyanotetrahydro-2H-pyran-4-yl)methyl)amino)-[2,4′-bipyridin]-2′-yl)amino)cyclohexyl)amino)propoxy)methyl)-1H-tetrazol-1-yl)ethyl ethyl carbonate], for which the EC50 with HepG2 cells and in the experiment with Hep3B cells was over 1000 nM in each case. For the same molecule, on CDK9/CyclinT, the IC50 was over 10 nM.

For the molecule `CCOC(=O)O[C@@H](C)n1nnnc1COC[C@@H](C)N[C@H]1CC[C@H](Nc2cc(-c3cccc(NCC4(C#N)CCOCC4)n3)c(Cl)cn2)CC1` [Compound 30, (S)-1-(5-(((R)-2-(((1r,4R)-4-((5′-chloro-6-(((4-cyanotetrahydro-2H-pyran-4-yl)methyl)amino)-[2,4′-bipyridin]-2′-yl)amino)cyclohexyl)amino)propoxy)methyl)-1H-tetrazol-1-yl)ethyl ethyl carbonate], the EC50 in the experiment on HepG2 cells is 500 to 1000 nM; with Hep3B cells, over 1000 nM. In addition, on CDK9/CyclinT, the IC50 is under 2.5 nM.

As to `CCOC(=O)O[C@@H](C)n1nnnc1COC[C@H](C)N[C@H]1CC[C@H](Nc2cc(-c3cccc(NCC4(C#N)CCOCC4)n3)c(Cl)cn2)CC1` [Compound 31, (S)-1-(5-(((S)-2-(((1r,4S)-4-((5′-chloro-6-(((4-cyanotetrahydro-2H-pyran-4-yl)methyl)amino)-[2,4′-bipyridin]-2′-yl)amino)cyclohexyl)amino)propoxy)methyl)-1H-tetrazol-1-yl)ethyl ethyl carbonate], the EC50 in the experiment on HepG2 cells and in the experiment on Hep3B cells was over 1000 nM throughout. Also, the IC50 on CDK9/CyclinT is under 2.5 nM.

In the case of `C[C@@H](COCc1nnn(C)n1)N[C@H]1CC[C@H](Nc2cc(-c3cccc(NCC4(C#N)CCOCC4)n3)c(Cl)cn2)CC1` [Compound 34, 4-(((5′-chloro-2′-(((1S,4r)-4-(((S)-1-((2-methyl-2H-tetrazol-5-yl)methoxy)propan-2-yl)amino)cyclohexyl)amino)-[2,4′-bipyridin]-6-yl)amino)methyl)tetrahydro-2H-pyran-4-carbonitrile], the EC50 is under 100 nM in the experiment on HepG2 cells and 100 to 500 nM in the experiment on Hep3B cells. On CDK9/CyclinT, this molecule yielded an IC50 of over 10 nM.

With `C[C@H](COCc1nnnn1C)N[C@H]1CC[C@H](Nc2cc(-c3cccc(NCC4(C#N)CCOCC4)n3)c(Cl)cn2)CC1` [Compound 36, 4-(((5′-chloro-2′-(((1R,4r)-4-(((R)-1-((1-methyl-1H-tetrazol-5-yl)methoxy)propan-2-yl)amino)cyclohexyl)amino)-[2,4′-bipyridin]-6-yl)amino)methyl)tetrahydro-2H-pyran-4-carbonitrile], the EC50 in the experiment on HepG2 cells is 100 to 500 nM; with Hep3B cells it was 500 to 1000 nM. On CDK9/CyclinT, the IC50 was under 2.5 nM.

On to `C[C@@H](COCc1nnnn1C)N[C@H]1CC[C@H](Nc2cc(-c3cccc(NCC4(C#N)CCOCC4)n3)c(Cl)cn2)CC1` [Compound 37, 4-(((5′-chloro-2′-(((1S,4r)-4-(((S)-1-((1-methyl-1H-tetrazol-5-yl)methoxy)propan-2-yl)amino)cyclohexyl)amino)-[2,4′-bipyridin]-6-yl)amino)methyl)tetrahydro-2H-pyran-4-carbonitrile], for which the EC50 in the experiment on HepG2 cells and in the experiment on Hep3B cells was 100 to 500 nM each time. At CDK9/CyclinT, the IC50 was under 2.5 nM.

Regarding `CC(COCCNS(=O)(=O)C(F)F)NC1CCC(Nc2cc(-c3cccc(NCC4(C#N)CCOCC4)n3)c(Cl)cn2)CC1` (stereo not shown) [Compound 41, N-(2-(2-(((1r,4r)-4-((5′-chloro-6-(((4-cyanotetrahydro-2H-pyran-4-yl)methyl)amino)-[2,4′-bipyridin]-2′-yl)amino)cyclohexyl)amino)propoxy)ethyl)-1,1-difluoromethanesulfonamide], the EC50 with HepG2 cells is under 100 nM; with Hep3B cells it was 100 to 500 nM. The molecule also showed an IC50 against CDK9/CyclinT of 5 to 10 nM.

On CDK9/CyclinT, `COC[C@@H](C)NC1CCC(Nc2cc(-c3cccc(NCC4(C#N)CCOCC4)n3)c(Cl)cn2)CC1` (stereo partly shown) [NVP-2, reference compound] displayed an IC50 of 2.5 to 5 nM.
